Legend:
[1] = tested on: ⅚ nephrectomized rat model; test: Effect on ⅚ nephrectomized rat model: renal functions; assay type: in vivo, Wistar rats
Procedure: The effect of beraprost sodium on a ⅚ nephrectomized rat model, which has been widely used as a model animal for renal failure, was examined. Two-thirds of the left kidney was removed from each of 4-week-old male Wistar rats (Charles River Japan Inc.) with a razor, and all of the right kidney was then removed therefrom one week after. Three weeks after the initial surgery, blood was collected from each rat through the tail vein and serum creatinine and BUN levels were determined from the blood. At this point of time, the urine was also collected for 24 hours to determine the mass of proteins in the urine. The rats were allocated to one of the treatment groups by the stratifying continuous randomization method based on the mass of proteins in the urine and the body weight (n=8 per group). […] Three weeks after the initial surgery, beraprost sodium or captopril (SIGMA, i.e., a positive control) was orally administered to each rat twice a day everyday, beginning the day on which administration of a drug was started and continued through five weeks after the administration. The determination of the renal functions was performed both three weeks and five weeks after the initial administration of a drug. The photographic images of the renal tissue were observed only five weeks after the initial administration.

[2] = tested on: ⅚ nephrectomized rat model; test: ⅚ nephrectomized rat model: observation of renal tissue images (histopathological change); assay type: in vivo, Wistar rats; conditions: for Framework: Infiltration of mononuclear cells / Renal corpuscle: Cellular filling in glomerulus / Renal corpuscle: Coagulation of glomeruli in Bowman's capsule / Renal corpuscle: Deposition of PAS + materials in Bowman's capsule / Renal corpuscle: Epidermal growth in Bowman's capsule / Renal corpuscle: Glomerular hypertrophy / Renal corpuscle: Glomerulosclerosis / Uriniferous tuble: Basophilic degeneration of tubules / Uriniferous tuble: Proliferation of proximal tubules / Uriniferous tuble: Proteinaceous urinary casts / Uriniferous tuble: Tubular dilation: number of animals with change in 8 animals per group, five weeks after initial administration
Procedure: The effect of beraprost sodium on a ⅚ nephrectomized rat model, which has been widely used as a model animal for renal failure, was examined. Two-thirds of the left kidney was removed from each of 4-week-old male Wistar rats (Charles River Japan Inc.) with a razor, and all of the right kidney was then removed therefrom one week after. Three weeks after the initial surgery, blood was collected from each rat through the tail vein and serum creatinine and BUN levels were determined from the blood. At this point of time, the urine was also collected for 24 hours to determine the mass of proteins in the urine. The rats were allocated to one of the treatment groups by the stratifying continuous randomization method based on the mass of proteins in the urine and the body weight (n=8 per group). There was observed little difference in the initial values of blood creatinine and BUN values among the rats. Three weeks after the initial surgery, beraprost sodium or captopril (SIGMA, i.e., a positive control) was orally administered to each rat twice a day everyday, beginning the day on which administration of a drug was started and continued through five weeks after the administration. The determination of the renal functions was performed both three weeks and five weeks after the initial administration of a drug. The photographic images of the renal tissue were observed only five weeks after the initial administration. […] Five weeks after the initial administration, more exacerbation of chronic renal failure was observed. […] The same tendency was shown five weeks after the initial administration (Table 2).

[3] = tested on: renal failure rat models of which the primary disease is glomerulonephritis; test: Renal failure rat models of which the primary disease is glomerulonephritis, subcutaneous osmotic pump; assay type: in vivo, WKY rats
Excerpt: Renal failure rat models of which the primary disease was glomerulonephritis were used to examine the effect of different 4,8-inter-m-phenylene prostaglandin I2 derivatives including beraprost sodium on the models. […] Two weeks after the induction, blood was collected from each rat through the tail vein to determine blood creatinine and BUN levels. […] Four types of 4,8-inter-m-phenylene prostaglandin I2 derivatives in total, including beraprost sodium, were individually administered subcutaneously to the rats from the back continuously with an osmotic pump (ALZET) for one week, beginning two weeks after induction of glomerulonephritis and continued through three weeks after the induction. The renal functions (i.e., blood creatinine and BUN levels) were determined one week after the initial administration of a drug.

[4] = tested on: glomerulonephritis model rats in inflammatory stage; test: Glomerulonephritis model rats, inflammatory stage, oral administration
Procedure: (§1) Eight-week-old male WKY rats (Charles River Japan Inc.) were administered intravenously with rabbit anti-rat glomerular basement membrane antiserum to induce glomerulonephritis. […] The frequency of the administration was twice a day for beraprost sodium and captopril and once a day for prednisolone. After the initial administration of a drug, urinary total protein excretion (which is a measure of renal functions) was determined.

[5] = tested on: glomerulonephritis model rats in renal failure stage; test: Glomerulonephritis model rats, renal failure stage, oral administration
Procedure: as §1

[6] = 100 μg/kg oral twice a day, five weeks after the administration of a drug
[7] = 100 μg/kg oral twice a day, three weeks after the administration of a drug
[8] = 300 μg/kg oral twice a day, five weeks after the administration of a drug
[9] = 300 μg/kg oral twice a day, three weeks after the administration of a drug
[10] = 60 μg/kg group, 2 weeks after induction (before administration)
[11] = 60 μg/kg s.c. osmotic pump, 3 weeks after induction (1 week after the initial administration)
[12] = 200 μg/kg group, 2 weeks after induction (before administration)
[13] = 200 μg/kg s.c. osmotic pump, 3 weeks after induction (1 week after the initial administration)

## CC#CCC(C)[C@H](O)/C=C/C1[C@H](O)C[C@@H]2Oc3c(CCCC(=O)[O-])cccc3[C@H]12.[Na+] (mixture of isomers) [Beraprost sodium, beraprost sodium]
[1]; [6]
  Blood urea nitrogen: 45.5 ± 3.3 mg/dL
  Creatinine clearance: 156.9 ± 19.5 μl/min/100 gBW
  Urinary protein excretion: 276.5 ± 69.2 mg/24 hr/kgBW
  Urinary volume: 21.7 ± 3.1 ml/24 hr
[1]; [7]
  Blood urea nitrogen: 55.9 ± 3.7 mg/dL
  Creatinine clearance: 134.1 ± 11.0 μl/min/100 gBW
  Urinary protein excretion: 125.3 ± 20.8 mg/24 hr/kgBW
  Urinary volume: 20.1 ± 2.8 ml/24 hr
[1]; [8]
  Blood urea nitrogen: 45.1 ± 3.5 mg/dL
  Creatinine clearance: 143.5 ± 10.0 μl/min/100 gBW
  Urinary protein excretion: 197.1 ± 21.1 mg/24 hr/kgBW
  Urinary volume: 20.4 ± 1.7 ml/24 hr
[1]; [9]
  Blood urea nitrogen: 50.9 ± 3.6 mg/dL
  Creatinine clearance: 136.4 ± 9.9 μl/min/100 gBW
  Urinary protein excretion: 154.4 ± 53.0 mg/24 hr/kgBW
  Urinary volume: 20.4 ± 3.7 ml/24 hr
[1]; three weeks after the initial administration, same tendency five weeks after
  Effect on urinary protein level, creatinine clearance and BUN level (in words): significant prevention of increase in the urinary protein level and prevention of reduction in the creatinine clearance and increase in the BUN level
[2]; 100 μg/kg
  Framework: Infiltration of mononuclear cells: 7
  Renal corpuscle: Cellular filling in glomerulus: 7
  Renal corpuscle: Coagulation of glomeruli in Bowman's capsule: 2
  Renal corpuscle: Deposition of PAS + materials in Bowman's capsule: 2
  Renal corpuscle: Epidermal growth in Bowman's capsule: 1
  Renal corpuscle: Glomerular hypertrophy: 3
  Renal corpuscle: Glomerulosclerosis: 2
  Uriniferous tuble: Basophilic degeneration of tubules: 8
  Uriniferous tuble: Proliferation of proximal tubules: 8
  Uriniferous tuble: Proteinaceous urinary casts: 5
  Uriniferous tuble: Tubular dilation: 8
[2]; 300 μg/kg
  Framework: Infiltration of mononuclear cells: 7
  Renal corpuscle: Cellular filling in glomerulus: 4
  Renal corpuscle: Coagulation of glomeruli in Bowman's capsule: 1
  Renal corpuscle: Deposition of PAS + materials in Bowman's capsule: 1
  Renal corpuscle: Epidermal growth in Bowman's capsule: 1
  Renal corpuscle: Glomerular hypertrophy: 2
  Renal corpuscle: Glomerulosclerosis: 1
  Uriniferous tuble: Basophilic degeneration of tubules: 8
  Uriniferous tuble: Proliferation of proximal tubules: 8
  Uriniferous tuble: Proteinaceous urinary casts: 2
  Uriniferous tuble: Tubular dilation: 8
[2]; five weeks after the initial administration
  Progress of the glomerular conditions (renal tissue images, in words): markedly prevented
[3]; [10]
  BUN: 28 ± 3 mg/dL
  Blood creatinine: 0.61 ± 0.07 mg/dL
[3]; [11]
  BUN: 31 ± 2 mg/dL
  Blood creatinine: 0.48 ± 0.04 mg/dL
[3]; [12]
  BUN: 30 ± 3 mg/dL
  Blood creatinine: 0.62 ± 0.06 mg/dL
[3]; [13]
  BUN: 25 ± 1 mg/dL
  Blood creatinine: 0.49 ± 0.04 mg/dL
[3]; three weeks after the induction of glomerulonephritis
  Blood creatinine and BUN levels compared with the control group (in words): significantly decreased
[4]; 300 μg/kg oral twice a day, 7 days after induction (1 week after initial administration)
  Urinary total protein excretion: 17 ± 7 mg/24 hr
[4]; day 1 through day 7 after induction
  Increase in urinal total protein excretion (in words): markedly prevented
[5]; 300 μg/kg group, renal failure stage Exp. 1, 2 weeks after induction (before administration)
  Urinary total protein excretion: 374 ± 21 mg/24 hr
[5]; 300 μg/kg group, renal failure stage Exp. 2, 2 weeks after induction (before administration)
  Urinary total protein excretion: 321 ± 23 mg/24 hr
[5]; 300 μg/kg oral twice a day, renal failure stage Exp. 1, 3 weeks after induction (1 week after initial administration)
  Urinary total protein excretion: 300 ± 51 mg/24 hr
[5]; 300 μg/kg oral twice a day, renal failure stage Exp. 2, 4 weeks after induction (2 week after initial administration)
  Urinary total protein excretion: 295 ± 46 mg/24 hr
[5]; renal failure stage, two weeks through four weeks after induction
  Increase in urinal total protein excretion (in words): markedly prevented

From patent US20030092760A1, “Therapeutic agent for renal failure” (Toray Industries, Inc., priority 2001, published 2003)
